System: Tau441 interaction with MTs in axon-like processes of neuronally differentiated PC12 cells
Assay: Fluorescence decay after photoactivation (FDAP) of PAGFP-Tau441
Format: cell-based, human
Source text: Building on the role of Tau dynamics in axonal MT function, , we next used Tau as a structural sensitive neuronal MAP to assess whether drug-imposed MT lattice states alter MAP recognition. To this end, we initially performed fluorescence decay after photoactivation (FDAP) experiments to assess potential changes in the interaction of the longest human Central Nervous System Tau isoform (Tau441) with MTs in axon-like processes of model neurons. We tagged Tau at the N-terminus with photoactivatable GFP (PAGFP) and expressed it exogenously in PC12 cells differentiated into a neuronal phenotype (Figure A). After locally activating a subset of labeled Tau molecules in the middle of a process, we monitored FDAP over time in the activated region (Figure B). Tau gradually dissipated from the activation site.
To quantify changes in Tau’s effective diffusion constant (D eff) as a result of its dynamic interactions with MTs, we measured FDAP at various compound concentrations and fitted the resulting decay curves using a previously established reaction-diffusion model. […] Remarkably, the GDP-like MTs stabilized by compound 1b remain largely neutral with respect to Tau-MT interactions.
PC12 cells (originally obtained from J.A. Wagner, Harvard Medical School) were cultured in serum-DMEM (DMEM supplemented with 10% fetal bovine serum and antibiotics (100 U/ml penicillin and 100 μg/mL streptomycin)) at 37 °C with 10% CO2 in a humidified incubator. For live cell imaging, cells were transfected with the respective pRc/CMV expression vector using Lipofectamine 2000 (Thermo-Fisher Scientific, USA) as previously described. FDAP experiments were performed essentially as previously described. Briefly, cells expressing PAGFP-tagged Tau441 were plated on 35 mm glass-bottom culture dishes (MatTek, USA), transfected, and neuronally differentiated by medium exchange to serum-reduced DMEM containing 100 ng/mL 7S mouse NGF. After 3 days, the medium was exchanged to serum-reduced DMEM without phenol red with NGF, and the respective compound (or DMSO for carrier control) were added at the desired concentration. After 20 h, live cell imaging was performed using a laser scanning microscope (Nikon Eclipse Ti2-) equipped with a LU-N4 laser unit with 488 and 405 nm lasers and a Fluor 60× ultraviolet-corrected objective lens (NA 1.4) and a C2+scanner enclosed in an incubation chamber at 37 °C and 5% CO2. Photoactivation was performed with a 405 nm laser using the microscope software (NIS-Elements version AR 5.02.03). The following steps were performed in a photoactivation experiment. A transfected cell with a suitable process (minimum length 30 μm) was selected in the field of view (50 μm × 50 μm) and a preactivation image was saved at 488 nm excitation. The scan window was reduced to a 6-μm diameter activation spot (corresponding to 130 pixels), and photoactivation was performed in the center of the neurite using the 405 nm blue diode (laser intensity 1.0%; corresponding to an output of 30 μW) with two scans at a pixel dwell time of 4.08 μs (corresponding to a total activation time at the spot of 1.1 ms). The scan window was enlarged to the initial size, and the first scan was performed after 1 s with the 488 nm laser at the lowest practical laser intensity. Subsequent images were acquired at a rate of 1 frame/s. 112 images with a resolution of 256 × 256 pixels were collected per activated neurite. […] Effective diffusion constants were determined by fitting the fluorescence decay data from the photoactivation experiments using a one-dimensional diffusion model function for FDAP according to. All data sets were tested for normality using the D’Agostino-Pearson and Shapiro-Wilk tests. Statistical outliers were identified using the ROUT method. Equality was assessed using a F-test to compare variances. To compare different concentrations, statistically significant differences from control were determined by a one-way ANOVA with Dunnett’s post hoc test. […]

Structure (SMILES) | unbound Tau population (20 nM PTX (control 7.5%)) [%] | decrease in the unbound Tau population (20 nM PTX vs control) [%] | concentration with notable reduction of Tau's D eff (PC12 cells, 20 h treatment) [nM] | effect on Tau's effective diffusion constant (D eff) / Tau-MT interaction (PC12 cells, 20 h treatment)
CC(=O)O[C@H]1C(=O)[C@@]2(C)[C@H]([C@H](OC(=O)c3ccccc3)[C@]3(O)C[C@H](OC(=O)[C@H](O)[C@@H](NC(=O)c4ccccc4)c4ccccc4)C(C)=C1C3(C)C)[C@]1(OC(C)=O)CO[C@@H]1C[C@@H]2O [PTX, Paclitaxel] | 4.4 | ~40 | 5 | significantly reduced Tau’s D eff
CC(=O)OC1C(=O)C2(C)C(OC(=O)CCCCC(=O)OC3CCc4ccccc43)CC3OCC3(OC(C)=O)C2C(OC(=O)c2ccccc2)C2(O)CC(OC(=O)C(O)C(NC(=O)c3ccccc3)c3ccccc3)C(C)=C1C2(C)C (stereo not drawn) [1a, 7-O-(6″-O-(2‴,3‴-Dihydroinden-1‴-yl)hexanedioyl) Paclitaxel] | – | – | – | increasing Tau’s D eff
COc1ccc2c(c1)CC(NC(=O)CCCCCCCC(=O)OC1CC3OCC3(OC(C)=O)C3C(OC(=O)c4ccccc4)C4(O)CC(OC(=O)C(O)C(NC(=O)c5ccccc5)c5ccccc5)C(C)=C(C(OC(C)=O)C(=O)C13C)C4(C)C)CC2 [1b, 7-O-((S)-9″-(7‴-Methoxy-1‴,2‴,3‴,4‴-tetrahydronaphthalen-2‴-yl)amino) −9″-oxononanoyl) Paclitaxel] | – | – | – | did not significantly alter Tau-MT interactions
